{"source": "paper PMC12867150", "about": "“A fungi-derived cyclic peptide enhances Th9-mediated antitumor immunity by targeting ZAP70 and SREBP1” (The Journal of Clinical Investigation, 2025)", "key": {"Th2 cells": {"test_system": "Th2 cells", "assay": "Th2 polarization, IL-4 by flow cytometry (Figure 1G)", "type": "cell-based, mouse", "method": "(§1) Naive CD4^+ T cells were isolated from the spleens of C57BL/6J or CD45.1^+ OT-II mice using the MojoSort Mouse CD4 Naive T Cell Isolation Kit (BioLegend, catalog 480040), following the manufacturer’s protocol. Purified cells were cultured in RPMI-1640 medium supplemented with 10% FBS, 1% penicillin-streptomycin, and 0.1% β-mercaptoethanol (Gibco, catalog 21985023).\n(§2) T cell polarization was initiated under plate-bound anti-CD3 (2 μg/mL, clone 17A2, BioXCell, catalog BE0002) and soluble anti-CD28 (1 μg/mL, clone 37.51, BioXCell, catalog BE0015-1) stimulation, with the addition of cytokines and neutralizing antibodies specific to each subset. For Th9 cells, these included IL-4 (10 ng/mL, Peprotech, catalog 400-04), TGF-β (1 ng/mL, EPOTO Biotech, catalog HF-2021), anti–IL-12 (5 μg/mL, clone C17.8, BioXCell, catalog BE0051), and anti–IFN-γ (10 μg/mL, clone XMG1.2, BioXCell, catalog BE0055); for Th1 cells, these included IL-12 (10 ng/mL, GenScript, catalog Z03211-50) and anti–IL-4 (5 μg/mL, clone 11B11, BioXCell, catalog BE0045); for Th2 cells, these included IL-4 (50 ng/mL), anti–IFN-γ (20 μg /mL), anti–IL-12 (5 μg/mL), Th17 cells: IL-6 (20 ng/mL, EPOTO Biotech, catalog MF-1006), TGF-β (1 ng/mL), IL-1β (10 ng/mL, Peprotech, catalog AF-211-11B), anti–IFN-γ (10 μg/mL), anti–IL-12 (5 μg/mL), and anti–IL-4 (5 μg/mL); and for Tregs, these included TGF-β (3 ng/mL). […]"}, "Th17 cells": {"test_system": "Th17 cells", "assay": "Th17 polarization, IL-17 by flow cytometry (Figure 1H)", "type": "cell-based, mouse", "method": "as §1, §2"}, "[1]": {"conditions": "EpA 10 μM, individual replicates, n = 4"}}, "note": "“And” between values parts separate entries of the source, which are not always exact repeats. Equal entries are not always repeated.", "data": [{"substance": "anteiso-C15 Leu7 surfactin [EpA]", "values": [{"measurement": "IL-4 expression under Th2 polarization", "setting": "Th2 cells; [1]", "result": "38.3947 and 41.0302 and 36.7821 and 38.8006"}, {"measurement": "effect on Th2 differentiation", "setting": "Th2 cells; result in words", "result": "only a minor increase in Th2 differentiation"}, {"measurement": "IL-17 expression under Th17 polarization", "setting": "Th17 cells; [1]", "result": "31.3 and 30.4 and 30.7 and 33.1"}, {"measurement": "effect on Th17 polarization", "setting": "Th17 cells; result in words", "result": "did not affect"}]}]}
